Columns and labels:
[1] = biological target: Rho-associated protein kinase 1 (Homo sapiens) (UniProt Q13464); details: Compound concentration 100.0 nM
[2] = biological target: Phosphatidylinositol 4,5-bisphosphate 3-kinase catalytic subunit alpha isoform (Homo sapiens) (UniProt P42336); details: Compound concentration 100.0 nM
[3] = biological target: Wee1-like protein kinase (Homo sapiens) (UniProt P30291); details: Compound concentration 100.0 nM
[4] = biological target: Homeodomain-interacting protein kinase 2 (Homo sapiens) (UniProt Q9H2X6); details: Compound concentration 100.0 nM
[5] = biological target: Eukaryotic translation initiation factor 2-alpha kinase 1 (Homo sapiens) (UniProt Q9BQI3); details: Compound concentration 100.0 nM
[6] = biological target: Serine/threonine-protein kinase TAO2 (Homo sapiens) (UniProt Q9UL54); details: Compound concentration 100.0 nM
[7] = biological target: LIM domain kinase 2 (Homo sapiens) (UniProt P53671); details: Compound concentration 100.0 nM
[8] = biological target: Casein kinase I isoform delta (Homo sapiens) (UniProt P48730); details: Compound concentration 100.0 nM
[9] = biological target: 5-hydroxytryptamine receptor 1B (Homo sapiens) (UniProt P28222); details: Compound concentration 10.0 uM
[10] = biological target: Mitogen-activated protein kinase kinase kinase 11 (Homo sapiens) (UniProt Q16584); details: Compound concentration 100.0 nM
[11] = biological target: MAP kinase-activated protein kinase 2 (Homo sapiens) (UniProt P49137); details: Compound concentration 100.0 nM
[12] = biological target: Serine/threonine-protein kinase pim-1 (Homo sapiens) (UniProt P11309); details: Compound concentration 100.0 nM
[13] = test system: Epidermal growth factor receptor (Homo sapiens), P00533 [UNDEFINED MUTATION]; details: Compound concentration 100.0 nM
[14] = biological target: Dual specificity mitogen-activated protein kinase kinase 3 (Homo sapiens) (UniProt P46734); details: Compound concentration 100.0 nM
[15] = biological target: Receptor-interacting serine/threonine-protein kinase 2 (Homo sapiens) (UniProt O43353); details: Compound concentration 100.0 nM
[16] = biological target: Tyrosine-protein kinase Mer (Homo sapiens) (UniProt Q12866); details: Compound concentration 100.0 nM
[17] = biological target: Tyrosine-protein kinase SYK (Homo sapiens) (UniProt P43405); details: Compound concentration 100.0 nM
[18] = biological target: D(3) dopamine receptor (Homo sapiens) (UniProt P35462); details: Compound concentration 10.0 uM
[19] = biological target: Serine/threonine-protein kinase Chk2 (Homo sapiens) (UniProt O96017); details: Compound concentration 100.0 nM
[20] = biological target: Ephrin type-B receptor 2 (Homo sapiens) (UniProt P29323); details: Compound concentration 100.0 nM
[21] = test system: Phosphatidylinositol 4,5-bisphosphate 3-kinase catalytic subunit alpha isoform (Homo sapiens), P42336 [Q546K]; details: Compound concentration 100.0 nM
[22] = biological target: Serine/threonine-protein kinase VRK2 (Homo sapiens) (UniProt Q86Y07); details: Compound concentration 100.0 nM
[23] = biological target: Citron Rho-interacting kinase (Homo sapiens) (UniProt O14578); details: Compound concentration 100.0 nM
[24] = biological target: Ephrin type-B receptor 4 (Homo sapiens) (UniProt P54760); details: Compound concentration 100.0 nM
[25] = biological target: 5-hydroxytryptamine receptor 1E (Homo sapiens) (UniProt P28566); details: Compound concentration 10.0 uM
[26] = test system: Tyrosine-protein kinase ABL1 (Homo sapiens), P00519 [T315I]; details: Compound concentration 100.0 nM
[27] = biological target: cAMP-dependent protein kinase catalytic subunit beta (Homo sapiens) (UniProt P22694); details: Compound concentration 100.0 nM
[28] = test system: Epidermal growth factor receptor (Homo sapiens), P00533 [G719S]; details: Compound concentration 100.0 nM
[29] = biological target: Mitogen-activated protein kinase kinase kinase kinase 4 (Homo sapiens) (UniProt O95819); details: Compound concentration 100.0 nM
[30] = test system: Fibroblast growth factor receptor 3 (Homo sapiens), P22607 [G697C]; details: Compound concentration 100.0 nM
[31] = biological target: Serine/threonine-protein kinase BRSK2 (Homo sapiens) (UniProt Q8IWQ3); details: Compound concentration 100.0 nM
[32] = biological target: TGF-beta receptor type-2 (Homo sapiens) (UniProt P37173); details: Compound concentration 100.0 nM
[33] = biological target: Cyclin-dependent kinase 16 (Homo sapiens) (UniProt Q00536); details: Compound concentration 100.0 nM
[34] = biological target: Beta-2 adrenergic receptor (Homo sapiens) (UniProt P07550); details: Compound concentration 10.0 uM
[35] = biological target: MAP/microtubule affinity-regulating kinase 4 (Homo sapiens) (UniProt Q96L34); details: Compound concentration 100.0 nM
[36] = biological target: Casein kinase I isoform epsilon (Homo sapiens) (UniProt P49674); details: Compound concentration 100.0 nM
[37] = biological target: T1, Aurora kinase A (Homo sapiens) (UniProt O14965); details: Compound concentration 100.0 nM
T1 sequence (whole entry): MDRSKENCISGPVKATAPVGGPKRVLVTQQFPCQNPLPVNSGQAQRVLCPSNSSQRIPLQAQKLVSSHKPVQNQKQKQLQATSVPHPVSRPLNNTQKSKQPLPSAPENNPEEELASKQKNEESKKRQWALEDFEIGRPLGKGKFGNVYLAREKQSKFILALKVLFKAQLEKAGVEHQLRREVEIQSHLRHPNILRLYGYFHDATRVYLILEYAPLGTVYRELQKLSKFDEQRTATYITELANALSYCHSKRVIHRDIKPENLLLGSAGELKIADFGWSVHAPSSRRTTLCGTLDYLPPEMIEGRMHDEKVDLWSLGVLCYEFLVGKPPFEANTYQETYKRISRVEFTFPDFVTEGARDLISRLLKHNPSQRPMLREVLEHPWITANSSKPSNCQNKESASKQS

[38] = biological target: Insulin receptor (Homo sapiens) (UniProt P06213); details: Compound concentration 100.0 nM
[39] = biological target: Serine/threonine-protein kinase SIK3 (Homo sapiens) (UniProt Q9Y2K2); details: Compound concentration 100.0 nM
[40] = biological target: Serine/threonine-protein kinase WNK1 (Homo sapiens) (UniProt Q9H4A3); details: Compound concentration 100.0 nM

Chain of Homeodomain-interacting protein kinase 2 (Homo sapiens) (Q9H2X6 whole entry, looked up): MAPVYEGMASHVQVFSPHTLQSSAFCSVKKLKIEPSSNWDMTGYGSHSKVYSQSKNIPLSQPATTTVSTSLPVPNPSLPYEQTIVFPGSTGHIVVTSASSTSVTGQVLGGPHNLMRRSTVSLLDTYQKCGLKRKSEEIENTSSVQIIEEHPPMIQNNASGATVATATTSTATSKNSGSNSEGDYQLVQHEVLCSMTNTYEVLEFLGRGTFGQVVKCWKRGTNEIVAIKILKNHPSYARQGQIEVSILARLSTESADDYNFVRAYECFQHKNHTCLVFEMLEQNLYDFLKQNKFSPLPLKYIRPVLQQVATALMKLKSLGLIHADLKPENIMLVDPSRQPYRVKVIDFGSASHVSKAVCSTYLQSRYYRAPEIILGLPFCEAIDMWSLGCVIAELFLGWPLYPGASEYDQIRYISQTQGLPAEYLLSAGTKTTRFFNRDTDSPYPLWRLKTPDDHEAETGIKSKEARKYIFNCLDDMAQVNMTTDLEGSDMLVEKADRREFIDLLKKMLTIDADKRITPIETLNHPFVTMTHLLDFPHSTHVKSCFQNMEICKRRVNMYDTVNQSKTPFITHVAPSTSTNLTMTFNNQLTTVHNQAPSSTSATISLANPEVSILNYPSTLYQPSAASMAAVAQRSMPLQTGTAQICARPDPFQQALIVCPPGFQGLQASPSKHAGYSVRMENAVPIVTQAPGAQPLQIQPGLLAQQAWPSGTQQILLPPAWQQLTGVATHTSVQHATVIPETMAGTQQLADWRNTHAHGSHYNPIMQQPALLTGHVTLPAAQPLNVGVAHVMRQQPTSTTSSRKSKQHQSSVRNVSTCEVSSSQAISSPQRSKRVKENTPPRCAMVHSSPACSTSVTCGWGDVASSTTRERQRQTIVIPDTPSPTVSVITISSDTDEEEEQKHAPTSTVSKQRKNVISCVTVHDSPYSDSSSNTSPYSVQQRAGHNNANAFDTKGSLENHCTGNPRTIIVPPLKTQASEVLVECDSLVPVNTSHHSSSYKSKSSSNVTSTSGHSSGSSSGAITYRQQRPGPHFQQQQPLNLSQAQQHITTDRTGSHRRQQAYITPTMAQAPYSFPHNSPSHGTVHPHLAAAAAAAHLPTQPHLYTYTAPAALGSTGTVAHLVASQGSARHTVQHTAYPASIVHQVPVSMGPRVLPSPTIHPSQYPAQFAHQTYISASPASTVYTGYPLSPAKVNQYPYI
Chain of Insulin receptor (Homo sapiens) (P06213 28-758 limits assumed): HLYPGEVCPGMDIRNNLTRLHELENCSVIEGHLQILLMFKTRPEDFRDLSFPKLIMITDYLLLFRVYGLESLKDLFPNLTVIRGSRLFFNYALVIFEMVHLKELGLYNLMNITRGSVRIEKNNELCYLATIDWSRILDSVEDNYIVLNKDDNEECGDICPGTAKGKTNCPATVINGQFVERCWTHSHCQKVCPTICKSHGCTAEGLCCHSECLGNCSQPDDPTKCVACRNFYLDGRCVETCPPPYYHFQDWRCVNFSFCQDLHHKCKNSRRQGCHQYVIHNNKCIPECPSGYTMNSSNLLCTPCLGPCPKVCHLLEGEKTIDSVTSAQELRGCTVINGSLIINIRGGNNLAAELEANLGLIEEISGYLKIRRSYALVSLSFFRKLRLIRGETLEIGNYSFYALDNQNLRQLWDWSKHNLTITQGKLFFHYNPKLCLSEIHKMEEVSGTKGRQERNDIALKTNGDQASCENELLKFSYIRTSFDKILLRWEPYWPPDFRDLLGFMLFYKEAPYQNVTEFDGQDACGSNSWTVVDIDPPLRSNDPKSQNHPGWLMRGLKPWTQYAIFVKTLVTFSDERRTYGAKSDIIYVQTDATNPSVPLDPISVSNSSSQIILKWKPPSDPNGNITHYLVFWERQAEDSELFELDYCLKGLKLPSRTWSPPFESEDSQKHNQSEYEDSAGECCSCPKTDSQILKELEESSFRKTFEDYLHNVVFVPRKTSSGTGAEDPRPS
Chain of Insulin receptor (Homo sapiens) (P06213 763-1382 limits assumed): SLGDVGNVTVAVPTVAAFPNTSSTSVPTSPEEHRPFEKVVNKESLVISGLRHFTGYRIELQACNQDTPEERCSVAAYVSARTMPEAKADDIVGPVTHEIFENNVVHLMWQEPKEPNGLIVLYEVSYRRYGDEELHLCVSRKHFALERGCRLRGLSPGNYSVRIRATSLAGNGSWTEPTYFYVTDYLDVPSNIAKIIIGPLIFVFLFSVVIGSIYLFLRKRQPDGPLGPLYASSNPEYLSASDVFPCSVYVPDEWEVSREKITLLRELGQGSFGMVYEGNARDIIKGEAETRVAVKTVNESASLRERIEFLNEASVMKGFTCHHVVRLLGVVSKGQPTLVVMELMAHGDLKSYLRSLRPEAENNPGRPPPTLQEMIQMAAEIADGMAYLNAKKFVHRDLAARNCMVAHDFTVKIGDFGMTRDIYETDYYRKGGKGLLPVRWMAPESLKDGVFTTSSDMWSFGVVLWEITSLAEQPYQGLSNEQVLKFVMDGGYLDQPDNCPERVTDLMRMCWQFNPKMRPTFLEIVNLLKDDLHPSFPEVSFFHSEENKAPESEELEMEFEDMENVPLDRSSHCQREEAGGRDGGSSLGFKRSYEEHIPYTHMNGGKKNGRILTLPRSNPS
Chain of Fibroblast growth factor receptor 3 (Homo sapiens), P22607 [G697C] (P22607 whole entry G697C): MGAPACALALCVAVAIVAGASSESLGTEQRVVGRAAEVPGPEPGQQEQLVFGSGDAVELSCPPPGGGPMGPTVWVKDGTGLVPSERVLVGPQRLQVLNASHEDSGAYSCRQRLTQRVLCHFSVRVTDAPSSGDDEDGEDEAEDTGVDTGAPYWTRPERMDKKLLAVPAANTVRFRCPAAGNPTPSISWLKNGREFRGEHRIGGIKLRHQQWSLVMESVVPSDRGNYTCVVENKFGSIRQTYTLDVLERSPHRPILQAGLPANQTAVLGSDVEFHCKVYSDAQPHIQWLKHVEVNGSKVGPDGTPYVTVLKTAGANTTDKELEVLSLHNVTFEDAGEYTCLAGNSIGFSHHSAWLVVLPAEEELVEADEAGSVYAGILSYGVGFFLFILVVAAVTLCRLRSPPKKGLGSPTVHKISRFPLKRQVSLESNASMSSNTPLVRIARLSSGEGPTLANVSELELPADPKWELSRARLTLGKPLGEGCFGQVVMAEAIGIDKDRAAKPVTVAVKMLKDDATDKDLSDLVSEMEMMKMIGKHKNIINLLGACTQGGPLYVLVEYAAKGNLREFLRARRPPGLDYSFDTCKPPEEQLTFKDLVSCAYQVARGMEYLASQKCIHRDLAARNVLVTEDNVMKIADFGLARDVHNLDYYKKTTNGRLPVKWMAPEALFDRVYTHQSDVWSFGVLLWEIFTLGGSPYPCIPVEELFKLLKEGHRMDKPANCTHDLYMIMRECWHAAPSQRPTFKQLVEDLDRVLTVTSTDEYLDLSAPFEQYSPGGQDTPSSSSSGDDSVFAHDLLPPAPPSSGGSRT
Chain of Cyclin-dependent kinase 16 (Homo sapiens) (Q00536 whole entry): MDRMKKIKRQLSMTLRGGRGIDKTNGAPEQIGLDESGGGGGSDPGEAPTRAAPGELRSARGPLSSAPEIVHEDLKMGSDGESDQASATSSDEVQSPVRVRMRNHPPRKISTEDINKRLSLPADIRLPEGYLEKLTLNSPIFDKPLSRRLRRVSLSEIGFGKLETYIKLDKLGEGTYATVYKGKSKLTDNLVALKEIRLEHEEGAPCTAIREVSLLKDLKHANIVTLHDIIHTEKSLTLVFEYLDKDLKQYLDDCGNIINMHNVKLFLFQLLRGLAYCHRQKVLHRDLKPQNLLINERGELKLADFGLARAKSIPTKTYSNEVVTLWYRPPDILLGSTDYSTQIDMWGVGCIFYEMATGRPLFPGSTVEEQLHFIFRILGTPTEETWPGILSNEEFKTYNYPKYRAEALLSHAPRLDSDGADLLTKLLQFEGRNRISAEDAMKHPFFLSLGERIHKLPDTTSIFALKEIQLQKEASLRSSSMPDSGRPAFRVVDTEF
Chain of Serine/threonine-protein kinase Chk2 (Homo sapiens) (O96017 whole entry): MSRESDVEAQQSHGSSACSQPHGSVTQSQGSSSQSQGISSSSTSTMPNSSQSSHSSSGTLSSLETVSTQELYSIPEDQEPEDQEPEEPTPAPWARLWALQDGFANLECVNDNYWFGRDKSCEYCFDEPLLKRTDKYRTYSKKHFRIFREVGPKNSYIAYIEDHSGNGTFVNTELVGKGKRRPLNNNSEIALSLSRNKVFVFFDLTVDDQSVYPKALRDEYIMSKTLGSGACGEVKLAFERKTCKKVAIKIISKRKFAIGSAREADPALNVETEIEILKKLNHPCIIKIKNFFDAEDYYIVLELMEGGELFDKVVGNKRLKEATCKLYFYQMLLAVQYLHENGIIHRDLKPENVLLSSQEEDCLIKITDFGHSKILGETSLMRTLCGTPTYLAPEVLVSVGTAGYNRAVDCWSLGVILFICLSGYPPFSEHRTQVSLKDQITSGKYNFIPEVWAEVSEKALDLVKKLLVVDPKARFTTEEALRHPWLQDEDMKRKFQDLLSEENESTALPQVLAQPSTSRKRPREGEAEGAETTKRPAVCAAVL
Chain of MAP kinase-activated protein kinase 2 (Homo sapiens) (P49137 whole entry, looked up): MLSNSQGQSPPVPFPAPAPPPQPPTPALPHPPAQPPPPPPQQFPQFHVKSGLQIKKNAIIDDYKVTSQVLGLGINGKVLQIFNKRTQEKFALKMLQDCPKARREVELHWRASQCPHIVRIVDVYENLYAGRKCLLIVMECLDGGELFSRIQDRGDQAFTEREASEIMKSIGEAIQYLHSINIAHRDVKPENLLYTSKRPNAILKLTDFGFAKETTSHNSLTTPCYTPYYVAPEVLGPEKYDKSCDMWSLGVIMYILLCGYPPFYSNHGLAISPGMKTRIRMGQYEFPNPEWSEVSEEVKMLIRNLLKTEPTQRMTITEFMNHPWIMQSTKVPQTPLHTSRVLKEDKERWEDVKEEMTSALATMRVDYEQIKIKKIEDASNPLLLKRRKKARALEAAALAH

Row | SMILES | residual activity [1] [%] | residual activity [2] [%] | residual activity [3] [%] | residual activity [4] [%] | residual activity [5] [%] | residual activity [6] [%] | residual activity [7] [%] | residual activity [8] [%] | inhibition [9] [%] | residual activity [10] [%] | residual activity [11] [%] | residual activity [12] [%] | residual activity [13] [%] | residual activity [14] [%] | residual activity [15] [%] | residual activity [16] [%] | residual activity [17] [%] | inhibition [18] [%] | residual activity [19] [%] | residual activity [20] [%] | other results
1 | CCOC(=O)c1cc2cc(-c3cc(C(=O)NCc4ccc(C(=O)O)cc4)nn3C)ccc2[nH]1 [BI 4394] | 78 | 92 | 90 | 82 | 91 | 90 | 96 | 81 | 6.12 | 88 | 72 | 95 | 100 | 100 | 100 | 100 | 100 | 2.74 | 100 | 100 | residual activity [21]: 95%; residual activity [22]: 98%; residual activity [23]: 100%; residual activity [24]: 99%; inhibition [25]: 6.37%; residual activity [26]: 92%; residual activity [27]: 86%; residual activity [28]: 100%; residual activity [29]: 95%; residual activity [30]: 92%; residual activity [31]: 67%; residual activity [32]: 66%; residual activity [33]: 75%; inhibition [34]: -7.76%; residual activity [35]: 79%; residual activity [36]: 100%; residual activity [37]: 90%; residual activity [38]: 81%; residual activity [39]: 100%; residual activity [40]: 93%
2 | Cn1nc(C(=O)NCc2ccc(C(=O)O)cc2)cc1-c1ccc2[nH]ccc2c1 [BI 4395] | 93 | 41 | 100 | 97 | 90 | 82 | 100 | 84 | 5.48 | 87 | 55 | 91 | 74 | 93 | 100 | 40 | 81 | 1.67 | 100 | 100 | residual activity [21]: 76%; residual activity [22]: 91%; residual activity [23]: 59%; residual activity [24]: 100%; inhibition [25]: 10.3%; residual activity [26]: 71%; residual activity [27]: 98%; residual activity [28]: 66%; residual activity [29]: 92%; residual activity [30]: 82%; residual activity [31]: 100%; residual activity [32]: 100%; residual activity [33]: 93%; inhibition [34]: 6.74%; residual activity [35]: 100%; residual activity [36]: 80%; residual activity [37]: 100%; residual activity [38]: 100%; residual activity [39]: 94%; residual activity [40]: 100%
